The text below walks through data of the supplement of paper PMC5579334.

± gives the standard deviation of the averaged measurements.

For orientation: % inhibition means the drop in the measured response relative to a control, in per cent.

The subject of experiment [1] is S462. As to the kind of experiment: drug sensitivity score (DSS, CellTiter-Glo viability, 72 h) (DSS (dimensionless)); higher = more sensitive; extreme values may be limits of the assay. The method in brief: (§1)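 MPNST cell lines and primary human Schwann cells (750–1000 cells per well) went into 384-well plates preprinted with each compound at five concentrations in 10-fold steps. Plates were incubated 72 h at 37 °C, 5% CO2. Viability was read as CellTiter-Glo ATP luminescence, scaled between vehicle and positive-control wells, with duplicates averaged where present. Percent inhibition is at the top concentration; drug sensitivity score and relative IC50 (censored at top concentration) come from four-parameter logistic fits.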

Experiment [2] relates to HSC1 (primary human Schwann cells). The experiment is described as above. In outline:
as §1

In experiment [3] the test system is S1507-2. Described as above. In outline: as §1
For experiment [4], the system named is HSC2 (primary human Schwann cells). The experiment is described as above. The method in brief:
as §1

The subject of experiment [5] is STS26T. The experiment is described as above. In outline:
as §1

Experiment [6] relates to ST8814. Described as above. The method in brief:
as §1

Experiment [7] has as its system S462. As to the kind of experiment: % inhibition of CellTiter-Glo viability at highest tested concentration (72 h), relative to DMSO and benzethonium chloride controls; higher = more inhibition. The method in brief: as §1
(In general: Cellular ATP, detected with luciferase, serves as a proxy for viable cell number.)

In experiment [8] the test system is HSC1 (primary human Schwann cells). The description is as above. In outline:
as §1

Experiment [9] deals with S1507-2. The description is as above. The method in brief: as §1
The subject of experiment [10] is HSC2 (primary human Schwann cells). The experiment is described as above. In outline: as §1
In experiment [11] the test system is STS26T. Described as above. The method in brief: as §1
Experiment [12] has as its system ST8814. Described as above. In outline:
as §1

Experiment [13] concerns HSC1 (primary human Schwann cells). The experiment in a line: drug sensitivity score (DSS, CellTox-Green cytotoxicity, 72 h) (DSS (dimensionless)); higher = more cytotoxic; extreme values may be limits of the assay. The method in brief:
(§2)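 MPNST cell lines and primary human Schwann cells were incubated 72 h at 37 °C in 384-well plates holding five 10-fold compound dilutions. CellTox-Green was added before seeding at a final 1:1000 dilution and reported fluorescence from DNA released by disrupted cells. Signals were scaled to vehicle and positive-control wells, and cultures failing plate quality control were dropped. Drug sensitivity score and relative IC50 come from four-parameter logistic fits, with IC50 censored at the top concentration.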

The test system of experiment [14] is S1507-2. Described as above. The method in brief: as §2
The subject of experiment [15] is HSC2 (primary human Schwann cells). Described as above. In outline: as §2
Experiment [16] relates to STS26T. The experiment is described as above. The method in brief: as §2
The test system of experiment [17] is ST8814. Described as above. The method in brief:
as §2

For `COc1ncc(-c2ccc3nccc(-c4ccnnc4)c3c2)cc1NS(=O)(=O)c1ccc(F)cc1F` (max concentration tested 1000 nM), the drug sensitivity score in the experiment with S462 [1] was determined as 10.1 ± 1.8; in [2] it was 16.1; with S1507-2 [3] it was 14 ± 0.98; in experiment [4] it was 15.8; in the experiment with STS26T [5] it was 16.6; in the experiment on ST8814 [6], 12.8. Also, the drug sensitivity score in experiment [13] came out at 0; with S1507-2 [14] it was 0.225 ± 0.23; in experiment [15], 0; in the experiment with STS26T [16], 0.0475; with ST8814 [17], 4. Moreover, the “% inhibition” value in the experiment on S462 [7] turned out to be 75.23 ± 0.42%; in experiment [8] it was 84.4%; in the experiment with S1507-2 [9], 72.9 ± 5.3%; in experiment [10], 84.1%; in the experiment on STS26T [11], 83.4%; in the experiment with ST8814 [12], 90%.
As for `Cn1cc(C[C@@H](N)C(=O)O)c2ccccc21` [1-methyl-D-tryptophan aq] (max concentration tested 5000 nM), the drug sensitivity score (in the experiment on S462 [1]; in experiment [2]; with S1507-2 [3]; in experiment [4]; in the experiment on STS26T [5]; in the experiment on ST8814 [6]) was 0 throughout. The drug sensitivity score in [13] worked out at 0; in the experiment on S1507-2 [14] it was 0.475 ± 0.58; in experiment [15], 0.888; in the experiment with STS26T [16], 0.0551; in the experiment on ST8814 [17], 0. In addition, the “% inhibition” value was 0.824 ± 5.1% in the experiment with S462 [7]; 4.52% in experiment [8]; 0.132 ± 6.3% with S1507-2 [9]; 1.85% in experiment [10]; -5.75% in the experiment with STS26T [11]; -2.14% in the experiment with ST8814 [12].
Turning to `CCCCC/C=C/C=C1/C(=O)C=C[C@@H]1C/C=C\CCCC(=O)O` [15D-PGJ2] (max concentration tested 800 nM), the drug sensitivity score is 0 in the experiment with S462 [1]; 0 in experiment [2]; 0.113 ± 0.16 in the experiment on S1507-2 [3]; 0 in experiment [4]; 0 in the experiment on STS26T [5]; 0 with ST8814 [6]. Also, the drug sensitivity score (in [13]; in the experiment with S1507-2 [14]; in [15]; in the experiment on STS26T [16]; with ST8814 [17]) was 0 throughout. The “% inhibition” value is 0.683 ± 8.3% with S462 [7]; 2.13% in [8]; 4.46 ± 11% with S1507-2 [9]; 0.683% in [10]; -0.85% with STS26T [11]; -9.15% in the experiment on ST8814 [12].
Turning to `Cc1sc2c(c1C)C(c1ccc(Cl)cc1)=N[C@@H](CC(=O)OC(C)(C)C)c1nnc(C)n1-2` [(+)JQ1] (max concentration tested 10000 nM), the drug sensitivity score with S462 [1] was 11.3 ± 0.7; in experiment [2], 10.2; in the experiment with S1507-2 [3] it was 18.5 ± 0.8; in experiment [4] it was 10.4; in the experiment on STS26T [5], 8.02; in the experiment on ST8814 [6], 14.8. The drug sensitivity score is 0 in experiment [13]; 12.7 ± 1.7 in the experiment on S1507-2 [14]; 0 in experiment [15]; 0 in the experiment on STS26T [16]; 5.02 in the experiment on ST8814 [17]. The “% inhibition” value with S462 [7] amounted to 69.3 ± 1.7%; in [8], 61.1%; in the experiment with S1507-2 [9] it was 86.1 ± 1%; in experiment [10], 66%; in the experiment with STS26T [11], 43.2%; in the experiment on ST8814 [12] it was 75.6%.
Turning to `Cc1sc2c(c1C)C(c1ccc(Cl)cc1)=N[C@H](CC(=O)OC(C)(C)C)c1nnc(C)n1-2` [(-)JQ1] (max concentration tested 10000 nM), the drug sensitivity score is 0.987 ± 0.67 with S462 [1]; 0.0114 in experiment [2]; 0.382 ± 0.54 with S1507-2 [3]; 0.217 in experiment [4]; 0.598 in the experiment on STS26T [5]; 0.724 in the experiment on ST8814 [6]. The drug sensitivity score (in [13]; in the experiment on S1507-2 [14]; in experiment [15]; in the experiment on STS26T [16]; in the experiment on ST8814 [17]) was 0 each time. Besides, the “% inhibition” value in the experiment with S462 [7] turned out to be 21.6 ± 8.9%; in experiment [8] it was 11%; in the experiment with S1507-2 [9], 12.5 ± 8.2%; in experiment [10], 15.6%; in the experiment with STS26T [11] it was 15.6%; with ST8814 [12], 20%.
Regarding `CC1(C)CCC(CN2CCN(c3ccc(C(=O)NS(=O)(=O)c4ccc(NCC5CCOCC5)c([N+](=O)[O-])c4)c(Oc4cnc5[nH]ccc5c4)c3)CC2)=C(c2ccc(Cl)cc2)C1` [ABT-199] (max concentration tested 10000 nM), the drug sensitivity score in the experiment with S462 [1] is 0.138 ± 0.2; in experiment [2], 0.0759; in the experiment with S1507-2 [3], 0; in [4], 0.781; with STS26T [5], 0; in the experiment with ST8814 [6], 0.111. For the same compound, the drug sensitivity score in experiment [13] was 0; in the experiment on S1507-2 [14], 0.226 ± 0.32; in experiment [15], 0; in the experiment on STS26T [16], 0; with ST8814 [17], 0.467. In addition, the “% inhibition” value worked out at 7.02 ± 15% with S462 [7]; 14.4% in [8]; 8.98 ± 1.1% with S1507-2 [9]; 23.8% in experiment [10]; 3.69% with STS26T [11]; 15.5% with ST8814 [12].
Turning to `CC[C@@]1(O)C(=O)OCc2c1cc1n(c2=O)Cc2cc3ccccc3nc2-1` [Camptotechin] (max concentration tested 5000 nM), the drug sensitivity score in the experiment on S462 [1] stood at 26.995 ± 0.022; in experiment [2] it was 22.7; in the experiment with S1507-2 [3], 19.2 ± 0.92; in experiment [4], 23.8; in the experiment with STS26T [5] it was 22; with ST8814 [6] it was 26.9. The drug sensitivity score in experiment [13] came out at 20.8; in the experiment on S1507-2 [14], 10.95 ± 0.027; in experiment [15], 17.7; with STS26T [16], 13.2; with ST8814 [17], 30.9. In addition, the “% inhibition” value in the experiment on S462 [7] worked out at 103.58 ± 0.083%; in experiment [8], 101%; in the experiment with S1507-2 [9], 100 ± 0.18%; in experiment [10], 102%; with STS26T [11], 102%; in the experiment with ST8814 [12], 100%.
With `O=C(O)C1(C(=O)O)CCC1.[NH2-].[NH2-].[Pt+2]` [Carboplatin aq] (max concentration tested 100000 nM), the drug sensitivity score in the experiment on S462 [1] worked out at 8.728 ± 0.04; in [2] it was 8.01; in the experiment on S1507-2 [3], 5.78 ± 1.4; in experiment [4] it was 8.82; with STS26T [5], 6.61; in the experiment on ST8814 [6] it was 6.09. In addition, the drug sensitivity score was determined as 6.3 in [13]; 2.71 ± 1.2 in the experiment on S1507-2 [14]; 7.86 in [15]; 4.47 in the experiment on STS26T [16]; 6.79 in the experiment with ST8814 [17]. Moreover, the “% inhibition” value in the experiment on S462 [7] is 98.3 ± 1%; in experiment [8] it was 85.9%; in the experiment on S1507-2 [9] it was 73.8 ± 1.3%; in experiment [10], 93.2%; in the experiment with STS26T [11], 81.2%; in the experiment on ST8814 [12], 87.5%.
